{"source": "paper PMC6130634", "about": "(Pharmaceutical Biology, 2017)", "key": {"[1]": {"assay": "Stability of ChA in beagle urine under various storage conditions", "assay_type": "in vitro ADME"}, "[2]": {"assay": "Oral pharmacokinetics of ChA in beagle plasma", "assay_type": "in vivo, beagles", "details": "dog, 60 mg/kg"}, "[3]": {"assay": "Stability of ChA in beagle faeces under various storage conditions", "assay_type": "in vitro ADME"}}, "data": [{"compound": "O=C(/C=C/c1ccc(O)c(O)c1)O[C@@H]1C[C@](O)(C(=O)O)C[C@@H](O)[C@H]1O", "note": "[ChA, Chlorogenic acid]", "values": [{"measurement": "time ChA was stable", "setting": "[1]; processed urine, 4 °C", "result": "at least 8 h"}, {"measurement": "time ChA was stable", "setting": "[1]; urine, room temperature", "result": "≥ 6", "unit": "h"}, {"measurement": "time ChA was stable", "setting": "[1]; urine, −70 °C", "result": "at least 20 d"}, {"measurement": "AUC(0-inf)", "setting": "[2]", "result": "6320 ± 1850", "unit": "ng·h/mL"}, {"measurement": "AUC(0-t)", "setting": "[2]", "result": "5590 ± 1410", "unit": "ng·h/mL"}, {"measurement": "Cmax", "setting": "[2]", "result": "2350 ± 483", "unit": "ng/mL"}, {"measurement": "Tmax", "setting": "[2]", "result": "1.86 ± 0.499", "unit": "h"}, {"measurement": "half-life", "setting": "[2]", "result": "0.911 ± 0.187", "unit": "h"}, {"measurement": "time ChA was stable", "setting": "[3]; faeces, room temperature", "result": "≥ 6", "unit": "h"}, {"measurement": "time ChA was stable", "setting": "[3]; faeces, −70 °C", "result": "≥ 170", "unit": "h"}, {"measurement": "time ChA was stable", "setting": "[3]; processed faeces, 4 °C", "result": "at least 8 h"}]}]}
